From patent US10399933B2, “Inhibitors of indoleamine-2,3-dioxygenase for the treatment of cancer” (BRISTOL-MYERS SQUIBB COMPANY, priority 2015, dated 2019) come the findings set out here.

Some results are limits rather than exact numbers.

In the assay the target is human IDO1 (Homo sapiens, UniProt P14902). Description: Human IDO-1 inhibitory activity in HEK cells (human IDO1/HEK293 cellular assay). Also on record: expressed in transfected cells. As to conditions: HEK human IDO-1 cellular assay; 500 nM reference standard = 100% inhibition, DMSO = 0%. Format: cell-based. Here is the method: They were cultured in medium (DMEM with 10% FBS) containing 1 mg/ml G418 for two weeks.
The human IDO1/HEK293 cells were seeded at 10,000 cells per 50 μL per well with RPMI/phenol red free media contains 10% FBS in a 384-well black wall clear bottom tissue culture plate (Matrix Technologies LLC) 100 nL of certain concentration of compound was then added to each well using ECHO liquid handling systems. The cells were incubated for 20 hours in 37° C. incubator with 5% CO2.
The compound treatments were stopped by adding trichloroacetic acid (Sigma-Aldrich) to a final concentration at 0.2%. The cell plate was further incubated at 50° C. for 30 minute. The equal volume supernatant (20 μL) and 0.2% (w/v) Ehrlich reagent (4-dimethylaminobenzaldehyde, Sigma-Aldrich) in glacial acetic acid were mixed in a new clear bottom 384-well plate. This plate was then incubated at room temperature for 30 minute. The absorbance at 490 nm was measured on Envision plate reader.

Sequence of human IDO1 (P14902 whole entry): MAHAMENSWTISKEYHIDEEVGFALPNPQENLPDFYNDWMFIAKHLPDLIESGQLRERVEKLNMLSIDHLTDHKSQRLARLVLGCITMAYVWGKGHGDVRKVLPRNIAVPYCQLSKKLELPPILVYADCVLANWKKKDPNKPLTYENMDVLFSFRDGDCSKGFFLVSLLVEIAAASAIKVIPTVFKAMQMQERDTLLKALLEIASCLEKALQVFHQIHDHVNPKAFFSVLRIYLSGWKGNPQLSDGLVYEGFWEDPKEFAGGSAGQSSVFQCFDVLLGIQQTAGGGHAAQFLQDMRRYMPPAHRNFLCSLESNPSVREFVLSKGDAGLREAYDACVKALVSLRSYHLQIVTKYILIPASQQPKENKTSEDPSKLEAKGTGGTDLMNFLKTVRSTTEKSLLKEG

The molecule `COCC(CC(=O)O)c1cc(F)c(N(CC(C)C)CC(C)C)c(NC(=O)Nc2ccc(OC(F)(F)F)cc2)c1` (single isomer, unassigned) [Example 1197, 3-(4-(Diisobutylamino)-3-fluoro-5-(3-(4-(trifluoromethoxy)phenyl)ureido)phenyl)-4-methoxybutanoic Acid] yielded a concentration for half-maximal inhibition (IC50) of less than 50 nM.
In the case of `COCC(CC(=O)O)c1ccc(N(CC(C)C)C2CCCCC2)c(NC(=O)Cc2cc(C)on2)c1` (single isomer, unassigned) [Example 1238, 3-(4-(Cyclohexyl(isobutyl)amino)-3-(2-(5-methylisoxazol-3-yl)acetamido)phenyl)-4-methoxybutanoic Acid], the 50% inhibitory concentration (IC50) was more than 50 nM.
On to `CCN(c1ccc(C(COC(C)C)CC(=O)O)cc1Nc1ccc(F)cc1)C1CCS(=O)(=O)CC1` (stereo not drawn) [Example 316], for which the IC50 is less than 50 nM.
To `CCN(c1ccc(C(COC(C)C)CC(=O)O)cc1Nc1ccc(F)cc1)C1CCS(=O)(=O)CC1` (stereo not drawn) [Example 336] belongs less than 50 nM.
In turn, `CCC(CC(=O)O)c1ccc(N2CCCC2C(C)(C)F)c(NC(=O)Nc2ccc(OC)cc2F)c1` [Example 787, 3-(3-(3-(2-fluoro-4-methoxyphenyl)ureido)-4-((S)-2-(2-(fluoropropan-2-yl)pyrrolidin-1-yl)phenyl)pentanoic acid] showed an IC50 of more than 50 nM.
As for “(+/−)-Methyl 3-(4-(isobutyl((1 r,4r)-4-methoxycyclohexyl)amino)-3-(3-(p-tolyl)ureido)phenyl)-4-methoxybutanoate [Example 1005]”, the concentration for half-maximal inhibition (IC50) was more than 50 nM.
